# Measured values as given in patent publication US12296018B2, “Albumin binding peptide-drug (AlBiPeD) conjugates and methods of making and using same” (priority 2018, dated 2025).
# Values joined by “and” are separate entries in the source; they are usually repeats but may differ in a detail not shown here. Equal entries are not always repeated.
# Columns and labels:
# [1] = system: C26 colon carcinoma tumors; assay: In vivo tumor regression, syngeneic C26 model; parameters: species or system BALB/c mice; conditions: 20 mg Dox Equiv.kg^−1 BW
# Experimental: (§1) In vivo tumor regression For in vivo tumor implantation, C26 cells at 5×10^5 cells in 30 μL Minimum Essential Medium (MEM) (Invitrogen, Carlsbad, CA) and MIA PaCa-2 cells at 2×10^6 cells in 50 μL 10:90 v/v MEM: Matrigel matrix (Corning Inc, Corning, New York) were inoculated in the right flank of normal and athymic nude BALB/c mice, respectively. Tumor cells were allowed to grow until the tumor volume, calculated as π/6×length×width^2, reached 75-100 mm^3 for C26 tumors and 100-125 mm^3 for MIA PaCa-2 tumors. Tumor bearing mice were then treated with ABD-Dox at 10 and 20 mg Dox Equiv.kg^−1 BW, AlDox at 20 mg Dox Equiv.kg^−1 BW, and free Dox at 10 mgkg^−1 BW. Tumor volumes and body weights were monitored for 100 days after treatment and mice displaying excessive tumor volume (>[…]), body weight loss (>15%), or ill health were euthanized. Tumor growth and survival data were analyzed by GraphPad Prism software. Survival curves were generated with the Kaplan-Meier method and compared with the log-rank (Mantel-Cox) test. Tumor growth data were compared with a paired one-way ANOVA followed by Tukey-Kramer (Tukey's) post-hoc test. P<0.05 was considered as statistically significant.
# (§2) For in vivo tumor regression studies, a single dose of ABD-Dox was injected via tail vein at 10 mg Dox Equiv.kg^−1 BW (MTD of free Dox) and 20 mg Dox Equiv.kg^−1 BW (MTD of ABD-Dox) in separate cohorts of BALB/c mice with s.c. C26 tumors or nude mice with s.c. MIA Paca-2 tumors. Free Dox was injected at its MTD of 10 mgkg-1 BW, and AlDox was injected at 20 mg Dox Equiv.kg^−1 BW, a dose that was reported to be safe in previous studies. All animals were injected when the tumors were 75-100 mm; in size for C26 tumors and 100-125 mm^3 for MIA PaCa-2 tumors.
# [2] = system: MIA PaCa-2 pancreatic tumor xenografts; assay: In vivo tumor regression, MIA PaCa-2 xenograft model; parameters: species or system nude BALB/c mice
# Experimental: as §1, §2
# Aqueous solubility = assay type: physicochemical
# Experimental: To remove the ELP160 tag, the KEKE-ELP160-srt-ABD-Dox conjugate was buffer exchanged into sortase reaction buffer, and was reacted with (His)6-sortase A-ELP40 in the presence of a 50 fold molar excess of triglycine (FIG. 2A). The efficiency of the sortase reaction, defined as the percent conversion of ELP-ABD-Dox substrate to ABD-Dox, was determined by size exclusion HPLC and was calculated to be ≥85% (FIG. 3A). The ABD-Dox product was then separated from (His)6-sortase A-ELP40, the cleaved KEKE-ELP160 tag, and unreacted KEKE-ELP160-srt-ABD-Dox in the sortase reaction solution by preparative size exclusion chromatography (SEC). The number of Dox molecules conjugated per ABD (Dox/ABD molar ratio) was measured before the sortase reaction by dissolving the lyophilized KEKE-ELP160-srt-ABD-Dox conjugate in PBS and calculating the moles of KEKE-ELP160-srt-ABD-Dox and Dox gravimetrically and spectrophotometrically at 488 nm, respectively. 3-4 Dox molecules were attached to each KEKE-ELP160-srt-ABD-(CGG)8. However, following removing the ELP160 tag, the resulting ABD-Dox conjugate was too hydrophobic and insoluble in pH 7.4 PBS because of the high number of conjugated Dox molecules. […] Formulation of AlDox in acidic pH, however, is undesirable as it can trigger the premature, in vitro degradation of the hydrazone bond between Dox and EMCH, converting AlDox back to free Dox.
# [3] = system: C26 murine colon carcinoma cells; assay: In vitro cytotoxicity (MTS, 72 h) C26; assay type: cell-based; conditions: 72 h incubation, Dox Equiv. concentration
# Experimental: (§3) In vitro cytotoxicity C26 murine colon carcinoma cells and three different pancreatic cancer cell lines, BxPC-3, AsPC-1, and MIA PaCa-2, were used to study the in vitro cytotoxicity of ABD-DOX and Dox. Cells were cultured and grown as monolayers at 37° C. with C02 in a humidified incubator and were passaged at ˜80% confluency using 0.05% trypsin-EDTA (Invitrogen, Carlsbad, CA). C26, BxPC-3, AsPC-1, and MIA PaCa-2 cells were seeded in 96-well plates (5,000 cells/well) and incubated overnight. Three-fold serial dilutions of drug were then added to the wells in triplicate and also to control wells (media with no cells) to correct for the background Dox absorbance. After 72 h treatment, 20 μL MTS reagent was added to each well and was incubated for 3 h at 37° C., and the absorbance at 490 nm was measured using a Victor3 plate reader (Perkin Elmer, Boston, MA). Cell viability (%) was defined as the percentage of the absorbance of the drug-treated cells relative to buffer-treated cells and IC50 values were determined using logistic non-linear regression analysis with GraphPad Prism software. The IC50 was defined as the Dox Equiv. concentration of formulations resulting in 50% growth inhibition compared with a negative control, buffer-treated cells.
# MIA PaCa-2 cells = assay: In vitro cytotoxicity (MTS, 72 h) MIA PaCa-2; assay type: cell-based, human; conditions: 72 h incubation, Dox Equiv. concentration
# Experimental: as §3
# [4] = system: AsPC-1 pancreatic cancer cells; assay: In vitro cytotoxicity (MTS, 72 h) AsPC-1; assay type: cell-based, human; conditions: 72 h incubation, Dox Equiv. concentration
# Experimental: as §3
# [5] = system: BxPC-3 pancreatic cancer cells; assay: In vitro cytotoxicity (MTS, 72 h) BxPC-3; assay type: cell-based, human; conditions: 72 h incubation, Dox Equiv. concentration
# Experimental: as §3
# [6] = Intravenous pharmacokinetics in healthy BALB/c mice
# Experimental: Pharmacokinetics and biodistribution Pharmacokinetics and biodistribution experiments were performed to study the concentration of ABD-Dox in blood and tissues over time following intravenous (i.v.) administration. For the pharmacokinetic study, ABD-Dox and Dox in PBS and AlDox in 10 mM sodium phosphate, 5% D-(+)-glucose, pH 5.8 were injected at 5 mg Dox Equiv. per kg of body weight (BW) into healthy BALB/c mice. 10 μL blood samples were collected at 40 s, 15 min and 30 min, and 2, 4, 8, 24, 48, 72 and 96 h post injection and were diluted into heparinized PBS (1 kUmL^−1), and centrifuged at 4,000 rcf, 10 min, 4° C. to collect the plasma. 10 μL of the plasma samples were then diluted in 490 μL of acidified isopropanol (0.075 M HCl, 10% water) and incubated overnight at 4° C. For the biodistribution study, ABD-Dox and Dox in PBS were injected at 5 mg Dox Equiv.kg^−1 BW into C26 tumor-bearing BALB/c mice. At 2 h, 24 h, and 72 h post-injection, mice were sacrificed and tumor, heart, lung, liver, spleen, kidney and muscle tissues were dissected, weighed, homogenized in acidified isopropanol using a Mini-Beadbeater (Biospec, Bartlesville, OK) with 2 mm diameter zirconia beads for 1-2 min, and were incubated overnight at 4° C. Following overnight incubation in acidified isopropanol, plasma and tissue samples were centrifuged at 16,000 rcf, 4° C. for 10 min and the supernatants were loaded onto black 96-well plates in duplicate and the Dox fluorescence was measured using on a Victor3 microplate reader (Perkin Elmer, Waltham, MA) with fluorescence excitation at 485 nm and emission at 590 nm. Tissues were also dissected from three untreated mice, processed in the same manner, serially diluted, and loaded on the plates to prepare a standard curve of fluorescence intensity versus the weight for each tissue from which the background tissue fluorescence was calculated and subtracted for each sample. Serial dilution of free Dox in acidified isopropanol was used as standard to quantify the Dox concentration as […] per liter of plasma (μM) and as the percent of the injected dose per gram (% ID g^−1) in the tumor and other tissues. Plasma concentrations of Dox Equiv. of ABD-Dox versus time were fit to a two-compartment model using SAAM II software (SAAM Institute, Seattle, WA) and the elimination half-life and the area-under-curve were computed. The tissue concentration of Dox. Equiv. of ABD-Dox and free Dox at each time point were compared in GraphPad Prism software (GraphPad, San Diego, CA) by Student's t-test with P<0.05 considered statistically significant.
# [7] = Tissue biodistribution in C26 tumor-bearing BALB/c mice; assay type: in vivo
# Excerpt: The tissue concentration of Dox.
# [8] = Dose-escalation study, maximum tolerated dose; assay type: in vivo, BALB/c mice; conditions: i.v., healthy BALB/c mice, two weeks; no mortality or body weight loss greater than 15%
# Experimental: With these encouraging biodistribution results in hand, tumor regression in vivo by ABD-Dox was investigated. The maximum tolerated dose (MTD) of ABD-Dox was established in healthy mice. A range of doses of ABD-Dox were injected into healthy BALB/c mice, and body weight loss and mortality of the mice were monitored over a two-week period to assess systemic toxicity. […] Using these criteria, the MTD was determined to be 20 mg Dox Equiv.kg^−1 for ABD-Dox (FIG. 7) and 10 mgkg^−1 BW MTD of free Dox (FIG. 8).
Compound,eradication of C26 tumors [1],mice that did not survive over the 100-day course of study [1] [%],recurrence of the primary tumor [1],"mice showing tumor disappearance ([2]; by day 15 after treatment, 20 mg Dox Equiv.kg^−1 BW) [%]","tumor recurrence in tumor-eradicated mice ([2]; by day 50, 20 mg Dox Equiv.kg^−1 BW)",concentration at which acidic pH is required for solubility in aqueous solutions (Aqueous solubility) [mg Dox Equiv.mL^−1],solubility (Aqueous solubility; physiological pH),IC50 [3],IC50 (MIA PaCa-2 cells) [nM],IC50 [4] [nM],IC50 [5] [nM],concentration in blood relative to initial concentration ([6]; 15 min after i.v. injection),"in vivo elimination half-life ([6]; i.v., 5 mg Dox Equiv. per kg BW)",concentration of Dox equivalent in tumor ([7]; 2 h after administration) [% ID.g^−1],minimum tumor accumulation ([7]; over 72 h) [% ID.g^−1],maximum tolerated dose (MTD) [8] [mgkg^−1 BW]
"COc1cccc2c1C(=O)c1c(O)c3c(c(O)c1C2=O)C[C@@](O)(/C(CO)=N/NC(=O)CCCCCN1C(=O)C=CC1=O)C[C@@H]3O[C@H]1C[C@H](N)[C@H](O)[C@H](C)O1 [AlDox, Aldoxorubicin, reference compound]",incomplete eradication,25,without recurrence of the primary tumor in any mice,50,all,≥ 0.5,poor solubility,,,,,,,,,
"COc1cccc2c1C(=O)c1c(O)c3c(c(O)c1C2=O)C[C@@](O)(C(=O)CO)C[C@@H]3O[C@H]1C[C@H](N)[C@H](O)[C@H](C)O1 [free Dox, Doxorubicin, reference compound]",,,,,,,,500 nM and 510 nM,40,2500,400,less than 2%,on the order of minutes,1.6,0.07,10
